Experimental data taken from patent US10682370B2, “Topical antiviral composition containing a local anesthetic and method of making the same” (priority 2013, dated 2020).
Where a name gives a salt, the structure may show the parent alone.

Key:
[1] = tested on: HSV-1; conditions: in vitro; cited from earlier work
[2] = Accelerated stability of sorivudine/lidocaine cream formulas stored in 40° C./75% RH; type: physicochemical
From the text: In the above Table 3, the six (6)-month accelerated stability assay data's for both formulations, i.e. Example 8 and Example 9 (containing BHT) were stable.

[3] = administered concurrently with 5-FU; cited from earlier work
[4] = acidic environment, accelerated test
[5] = neutral environment, 6 month accelerated test

For `Nc1nc2c(ncn2COCCO)c(=O)[nH]1` [Acyclovir, acyclovir], the “Selectivity ratio for the inhibitory activity against HSV-1” value [1] is given as “about 2000”.
In the case of `CCN(CC)CC(=O)Nc1c(C)cccc1C` [lidocaine HCl, 2-(diethylamino)-N-(2,6-dimethylphenyl)-acetamide], the “Change of assay (in words)” value [2, 4] is reported as “no change” and the “Change of assay (in words)” value [2, 5] is reported as “almost no change”.
For `O=c1[nH]c(=O)n([C@@H]2O[C@H](CO)[C@@H](O)[C@@H]2O)cc1/C=C/Br` [sorivudine], the “Change of assay (in words)” value [2, 4] is given as “no change”, the “Assay of sorivudine remaining” value [2, 5] is given as 66% and the “Toxicity on concurrent administration with 5-fluorouracil (5-FU)” value [3] is given as “major toxicity (myelosuppression)”.
